Data set [1] has as its system skin of SD rats. Kind of data set: transdermal penetration effect on back skin of SD rats, fluorescence microscopy of skin sections. The format is in vivo. The note with it: 50 μL of 500 μmol/L FITC-labeled peptide solution applied on back skin, three hours. Here is the method:
The experiments were performed using 8-week old SD rats (body weight 250 g). The back of SD rats was shaved, and the FITC-labeled peptide and control peptide prepared in Example 1 were each dissolved in a phosphate buffer (PBS, pH=7.4) to prepare a solution having a concentration of 500 μmol/L. The SD rats were divided into three groups, including: 1) a control group, in which no polypeptide solution was applied on the back; 2) a control group, in which the peptide as shown in SEQ ID NO: 3 was applied on the dorsal epidermis of rats; and 3) a treatment group, in which the peptide as shown in SEQ ID NO: 1 was applied on the back skin of rats. The rats in Groups 2) and 3) were each applied with 50 μL of the polypeptide solution. After three hours, the polypeptide in the applied area was washed off; the SD rats were sacrificed, and the skin applied with the polypeptide was taken, frozen, sectioned, and then observed under a fluorescence microscope.

Data set [2] in a line: isoelectric point of the transdermal peptide. The format is physicochemical.

Where a SMILES comes first, the peptide text is derived from it. The star is where a group is joined. FITC = O=C1OC2(c3ccc(O)cc3Oc3cc(O)ccc32)c2ccc(NC(=S)*)cc21

As to `CC[C@H](C)[C@H](NC(=O)[C@H](CC(=O)O)NC(=O)[C@H](CCCCN)NC(=O)[C@H](CO)NC(=O)[C@H](Cc1c[nH]c2ccccc12)NC(=O)[C@H](C)NC(=O)[C@H](CC(C)C)NC(=O)[C@H](Cc1c[nH]cn1)NC(=O)[C@H](CC(=O)O)NC(=O)[C@H](CCC(=O)O)NC(=O)[C@@H](NC(=O)[C@H](CO)NC(=O)[C@H](CC(=O)O)NC(=O)[C@@H](NC(=O)[C@H](CO)NC(=O)[C@H](CC(C)C)NC(=O)[C@H](C)NC(=O)[C@@H](NC(=S)Nc1ccc2c(c1)C(=O)OC21c2ccc(O)cc2Oc2cc(O)ccc21)[C@@H](C)CC)[C@@H](C)CC)C(C)C)C(=O)N[C@@H](CC(N)=O)C(=O)N[C@@H](C)C(=O)O` [irrelevant control polypeptide, reference compound] ({FITC}-IALSIDSVEDHLAWSKDINA-OH), in data set [1], the “fluorescence in the dermal tissue of the skin” value is “no green fluorescence in the dermal tissue”.

`CC(C)C[C@H](NC(=O)[C@H](Cc1ccc(O)cc1)NC(=O)[C@H](CCCCN)NC(=O)[C@H](CCCCN)NC(=O)CNC(=O)[C@H](CO)NC(=O)[C@@H]1CCCN1C(=O)[C@H](CC(C)C)NC(=O)[C@H](CCC(=O)O)NC(=O)[C@H](CCCCN)NC(=O)[C@@H](NC(=O)[C@H](Cc1ccccc1)NC(=O)[C@@H](NC(=O)CNC(=O)[C@H](CCCCN)NC(=O)[C@@H]1CCCN1C(=O)[C@H](Cc1ccccc1)NC(=O)[C@H](CC(C)C)NC(=O)[C@H](CCCCN)NC(=O)[C@H](CCCCN)NC(=S)Nc1ccc2c(c1)C(=O)OC21c2ccc(O)cc2Oc2cc(O)ccc21)C(C)C)[C@@H](C)O)C(=O)N[C@@H](CCCNC(=N)N)C(=O)O` [peptide of the present invention] ({FITC}-KKLFPKGVFTKELPSGKKYLR-OH): the “fluorescence in the dermal tissue of the skin” value in data set [1] is reported as “clearly observed in the skin appendages of the dermis”.

The compound “transdermal peptide with a nuclear localization ability: transdermal peptide with amino acid sequence as shown in SEQ ID NO: 1, enters eukaryotic cells autonomously (KKLFPKGVFTKELPSGKKYLR; Transdermal peptide)” gave an isoelectric point in data set [2] of 10.92.

For the origin of these results see patent US11261222B2, “Transdermal peptide with nuclear localization ability and use thereof” (SOOCHOW UNIVERSITY, priority 2017, dated 2022).
